How the values were obtained:
spleen cells = experiment: Normal immune function in mice bearing a primary tumor; assay type: in vivo, mouse; details: 20 mg/kg/day
From the text: At the indicated times, animals were sacrificed, and the spleens were aseptically removed and placed into sterile medium. Spleens were processed into single cell suspensions by grinding between sterile frosted glass microscope slides. After a single wash to remove tissue debris, the spleen cells were resuspended in a hypotonic ammonium chloride buffer to lyse erythrocytes. Lymphocytes were washed and resuspended to the appropriate concentrations in complete medium, consisting of RPMI plus 10% heat-inactivated FBS, 2 mM glutamine, 50 μM β-mercaptoethanol, and penicillin-streptomycin. The responses of the lymphocytes were examined in the following assays according to accepted procedures (Current Protocols in Immunology. Coligan, J. E., Kruisbeek, A. M., Margulies, D. H., Shevach, E. M., Strober, W. (eds.) John Wiley and Sons, Inc., 1992).
The T-cell mitogen, ConA, and the T-cell independent B-cell mitogen, LPS, were added to 96-well round-bottom wells at the indicated concentrations. Lymphocytes from normal, vehicle-dosed, and drug-dosed animals were added at a final concentration of 2.5×10^5 /well. Cultures were usually set up in triplicate or quadruplicate. The plates were incubated at 37° C. in a humidified atmosphere containing 5% CO2 for the indicated times. Supernatants (approximately 100 μL) were carefully removed from the wells and stored at -80° C. for lymphokine and immunoglobulin analyses. To measure proliferation of the lymphocytes, 1 μCi of ^3 H-thymidine was added to each well, and the plates were incubated for 6 hr. The cultures were harvested onto glass fiber filters, and the incorporated radioactivity was quantitated by liquid scintillation counting (Betaplate, Wallac).
Lymphocytes from normal, vehicle-dosed, and drug-dosed animals were plated at 2.5×10^5 /well in round-bottom 96-well plates. Stimulator cells were then added at the same cell concentration. The stimulator cells consisted of syngeneic or allogeneic lymphocytes which had been treated with 50 μg/mL of mitomycin C for 30 min prior to the assay. The plates were incubated for 3 to 4 days, at which time supernatants were harvested and the cultures were pulsed as described for the mitogen assays.
Supernatants from mitogen and MLR cultures were assayed for IL-2 and IL-6 content by the ability to support the growth of factor-dependent cell lines. HT-2 cells (10^4 /well, IL-2-dependent) and 7TD1 cells (2×10^3 /well, IL-6-dependent) were plated in 96-well flat-bottom plates, in 50 μL/well. Supernatants were added in 50 μL/well, and the plates were incubated overnight (HT-2) or four days (7TD1). Cellular proliferation was determined in the MTT colorimetric assay (Appendix 3.1).
Flat bottom 96-well EIA plates were coated with goat anti-mouse Ig antibodies (Southern Biotechnology) overnight at 4° C. The plates were blocked by the addition of PBS+1% BSA. After washing with PBS, supernatants from murine mitogen and MLR cultures were added and incubated at room temperature for 1 hr. The plates were washed with PBS, then HRP-labeled goat anti-mouse Ig antibodies were added and incubated at room temperature for 1 hr. The plates were washed and developed by the addition of substrate (ABTS).
BALB/c mice received SC implants of syngeneic WEHI-164.13 fibrosarcoma cells on day 0. […] On day 17, the animals were sacrificed and their spleens were removed. The spleen cells were assayed in vitro for responses to alloantigens and mitogens.

[1] = Effects of A10 on body weight and organs; assay type: in vivo, mouse; details: 20 mg/kg/day, 100 day period
Protocol: Vehicle control animals received IP administration of 100 μL PBTE:D5W (1:1, v:v) every day for 101 days, and untreated control animals received no treatments. There were eight animals in each group. Weights were measured on day 0 (one day prior to drug administration) and two times/week until experiment termination. The percent weight change was calculated as mean weight at each determination as compared to the mean weight on day 0.
However, after several weeks, the animals gained weight at a rate similar to untreated or vehicle-treated animals.

Compound: Cc1oncc1C(=O)Nc1ccc(C(F)(F)F)cc1 [Compound A10, 5-methylisoxazole-4 carboxylic acid-(4-trifluromethyl)-anilide]
- IL-2 production (spleen cells; Allo): 0
- IL-6 production (spleen cells; Allo): 0
- Ig production (spleen cells; Allo): 0
- IL-2 production (spleen cells; ConA): 0
- IL-6 production (spleen cells; ConA): 0
- Ig production (spleen cells; ConA): 0
- IL-2 production (spleen cells; LPS): 0
- IL-6 production (spleen cells; LPS): 0
- Ig production (spleen cells; LPS): 0
- IL-2 production (spleen cells; Tumor stimulus): 0
- IL-6 production (spleen cells; Tumor stimulus): 0
- Ig production (spleen cells; Tumor stimulus): 0
- mortality [1]: no mortality was observed

Source: US6331555A, “Treatment of platelet derived growth factor related disorders such as cancers” (priority 1999, dated 2001)
